Data set [1] deals with prostate tumor xenografts. The settings on record: nude mice (Butler et al. 2000); cited from earlier work.
In data set [2] the test system is LNCaP spheroids. As to the kind of experiment: LNCaP spheroid growth (volume monitoring). Format: cell-based, human. Conditions: for growth delay: 5-day incubation, vs untreated. How it is done: Cell concentrations were determined by counting trypsinized cells with a hemocytometer. […] The entire content of the above references is hereby incorporated by reference.
The medium was inoculated at 6.7×10^4 cells/mL from trypsinized stock cultures. The resulting suspension was used to seed 100 mm plates with approximately 10^6 cells. After an incubation of 5-7 days, spheroids of ˜200 μm diameter were selected under an inverted phase-contrast microscope (Axiophot 2; Carl Zeiss Ltd., Gottingen, Germany) fitted with an ocular scale using an Eppendorf pipette.
TREATMENT PROTOCOLS: After each treatment, spheroids were washed three times by suspension in fresh medium. […] A minimum of 12 spheroids was used for each condition in duplicate experiments.
The antibody was obtained from the laboratory of David Scheinberg, M. D., Ph.D., Memorial Sloan-Kettering Cancer Center.
Following complete treatment, washed spheroids were placed in separate agar-prepared wells of a 24 well plate. Untreated spheroids were washed and separated immediately after initial selection. The medium in each well was replaced, and volume measurements preformed, twice per week. Using the inverted microscope and ocular scale described previously, the major and minor diameter, dmax and dmin respectively, were determined and spheroid volume calculated as V=(⅙)·π·dmax·dmin^2. Volume monitoring was stopped once a spheroid had exceeded the field of view of the microscope or had fragmented into individual cells or multiple smaller cell clusters.
We describe this relationship through the inequality:
avg(V|S=5M, R=6 Gy)<C+{avg(V|S=5 μM, R=0)−C}+{avg(V|S=0, R=6 Gy)−C}
To test for synergy, we computed 2000 bootstrap replicates of the average log AUC, for each of the four groups, and computed the proportion of replicates where the inequality was not obtained. This proportion is termed the achieved significance level (p-value).

Data set [3] has as its system LNCaP spheroids. The data set is described as follows: TUNEL staining of spheroid sections (apoptosis). Format: cell-based, human. Conditions: for TUNEL staining (apoptosis): SAHA alone.
Protocol: At 0, 6, 24, or 48 h post treatment spheroids were washed in cold media, fixed for 4 hr in 4% paraformaldehyde, and placed in paraffin blocks. Serial 5-μm sections of the blocks were cut using a microtome and mounted on poly-L-lysine-coated slides that were fixed in ice cold acetone for 10 min.
A final, 2 min incubation in Hematoxylin was used to counterstain sections. Untreated spheroids were used as controls; positive controls were created using DNase I (Boehringer, Ingelheim, Germany). Images were captured digitally from an inverted phase-contrast microscope using a coupled Pixera Professional Camera and associated software (Pixera Visual Communication Suite, Pixera, Los Gatos, Calif.). Images were scored for positive staining as percentage of reactive cells within the spheroid section.
A two-tailed T test was used to test for significant differences in the percentage of positively stained cells.
For data set [4], the system named is LNCaP spheroids. As to the kind of experiment: Outgrowth assay (colony formation) of spheroids that did not regrow. Format: cell-based, human. Conditions: 5 μM SAHA 96 h in combination with 6 Gy external beam radiation.
Data set [5] has as its system LNCaP monolayer cell culture. Conditions: cited from earlier work.
Setting [6] is: continuous exposure at 5 μM SAHA.

For `O=C(CCCCCCC(=O)Nc1ccccc1)NO` [SAHA, Suberoylanilide hydroxamic acid], the toxicity entry in data set [1] is “minimal to no detectable toxicity”. For the same molecule, the growth delay in data set [2] (1.25 μM SAHA) was 4 days; in data set [2] (2.5 μM SAHA), 7 days; in data set [2] (5 μM SAHA), 13 days. The spheroid growth result is reported as “delayed but not arrested” in data set [2] (1.25 μM SAHA, 120-hour and continuous exposure); “complete growth arrest” in data set [2] (2.5 μM SAHA, over the 120 h incubation period); “complete growth inhibition” in data set [2] (5 μM SAHA 96 h in combination with 6 Gy external beam radiation after 48 h); “complete growth inhibition” in data set [2] (24 hour exposure to 100 nCi/mL Ac225-HuM195 followed by 96 h incubation with 5 μM SAHA); “complete growth suppression” in data set [2] (continuous exposure at 2.5 μM SAHA). In data set [2] (5 μM SAHA 96 h + 6 Gy vs additive model, p<0.01), the “statistical analysis of synergy (log AUC of tumor volume curve, bootstrap)” value is recorded as “synergistic inhibition of tumor growth”. The “delay in spheroid growth” value in data set [2] (5 μM SAHA 120 h in combination with 3 Gy external beam radiation) was 7 days. In addition, in data set [2] (5 μM SAHA, continuous incubation), the “time of incubation until complete spheroid disruption” value is listed as 13 to 16 days. Besides, the median volume reduction in data set [2] (5 μM SAHA, five days following a 120 hour incubation) worked out at 2.4 fold. In data set [2] (96 h exposure to 5 μM SAHA alone (Example 5)), the “initial delay of spheroid growth” value was 10 days. Further, in data set [2] (96 h exposure to 5 μM SAHA alone, after a period of 30 days (Example 5)), the “spheroid growth after the initial delay” value is “spheroid growth to almost the levels of control untreated spheroid volume”. Besides, in data set [2] (setting [6]), the “day by which the majority of spheroids disaggregated” value is no more than 20 days. Besides, in data set [2] (setting [6]), the spheroid volume entry is “rapid loss in spheroid volume”. Moreover, the “TUNEL staining (apoptosis)” value in data set [3] (48 h after the end of SAHA incubation (5 μM, 96 h)) is listed as “apoptotic cells are found throughout the spheroid”; in data set [3] (immediately after the end of a 96 h SAHA incubation (5 μM)), “majority of cells on the spheroid surface have undergone apoptosis”. The “TUNEL staining pattern compared with SAHA alone” value in data set [3] (SAHA (5 μM, 96 h) and 6 Gy radiation) is on record as “almost identical pattern”. Moreover, the “mode of cell death following exposure to SAHA” value in data set [3] (TUNEL staining and spheroid morphology) is “predominantly by apoptosis”. For the same molecule, in data set [4], the “spheroids forming colonies in the outgrowth assay” value is on record as “none of the 12 spheroids forming colonies”. The monolayer cell growth entry in data set [5] (2.5 μM SAHA, over a 4-day period (Butler et al. 2000)) is “complete growth suppression with minimal to no cell kill”. Besides, the monolayer cell kill result in data set [5] (5 μM SAHA (Butler et al. 2000)) is listed as “progressive cell kill starting after 48 hours”.

Take “Ac225-HuM195: recombinant humanized Anti-CD33 monoclonal antibody which has been radiolabelled with actinium225”: the spheroid growth result in data set [2] (100 nCi/mL Ac225-HuM195 for 24 hours alone) is on record as “did not cause growth inhibition”.
